Counter-ions that a name gives are not always drawn.
Tests used:
SCG neurons = test: cells; assay type: cell-based, Sprague Dawley rats; settings: for IC50: Rattus norvegicus, Neuron, Taxol™ (50 ng/mL), viability 48 hours later, MTS, read-out: IC(50), protection of SCG neurons from Taxol killing; for inhibition of Taxol™ induced killing of SCGs: concentrations as high as 50 μM
Protocol: Taxol™ is regularly used in breast cancer chemotherapy. In cancer cells Taxol™ binds to the cyto-skeletal protein tubulin, thereby inhibiting normal microtubular assembly and inducing cellular apoptosis. Despite its potency as an anti-tumour agent, Taxol™ is also toxic to neurons, inducing dose limiting peripheral neuropathies. The addition of Taxol™ (100 ng/mL) to cultured SCG neurons induces the degradation or loss of upwards of 80% of the neurons.
FIG. 1 illustrates the protection provided by compound 1 (referred to here as AEG3482) against Taxol™ induced killing. PI Sprague Dawley rat SCG neurons were cultured and incubated with NGF (50 ng/mL) for 5 days.

CA II = CA II (Homo sapiens, UniProt P00918); test: CA II inhibition; assay type: biochemical; settings: read-out: IC(50), CA II inhibition
Protocol: CA II inhabition was measured using the protocol described by Pocker, Y.'Stone, J. Biochemistry 1967, 6, 668.

## NS(=O)(=O)c1nn2cc(-c3ccc(F)cc3)nc2s1 [Compound 4, 6-(4-Fluorophenyl)imidazo[2,1-b]-1,3,4-thiadiazole-2-sulfonamide]
SCG neurons
  IC50: 5000 nM
CA II
  IC50: 217 nM

## NS(=O)(=O)c1nn2cc(-c3ccc(F)c(F)c3)nc2s1 [Compound 5, 6-(3,4-Difluorophenyl)imidazo[2,1-b]-1,3,4-thiadiazole-2-sulfonamide]
SCG neurons
  IC50: 5000 nM
CA II
  IC50: 192 nM

## NS(=O)(=O)c1nn2cc(-c3c(F)c(F)c(F)c(F)c3F)nc2s1 [Compound 6, 6-(2,3,4,5,6-Pentafluorophenyl)imidazo[2,1-b]-1,3,4-thiadiazole-2-sulfonamide]
SCG neurons
  IC50: 3000 nM
CA II
  IC50: 164 nM

## CCSc1c(F)c(F)c(-c2cn3nc(S(N)(=O)=O)sc3n2)c(F)c1F [Compound 7, 6-(4-Ethylthio-2,3,5,6-tetrafluorophenyl)imidazo[2,1-b]-1,3,4-thiadiazole-2-sulfonamide]
SCG neurons
  IC50: 4000 nM
CA II
  IC50: 581 nM

## NS(=O)(=O)c1nn2cc(-c3c(F)c(F)c(SCc4ccccc4)c(F)c3F)nc2s1 [Compound 8, 6-(4-Benzylthio-2,3,5,6-tetrafluorophenyl)imidazo[2,1-b]-1,3,4-thiadiazole-2-sulfonamide]
SCG neurons
  IC50: 5000 nM
CA II
  IC50: 1470 nM

## NS(=O)(=O)c1nn2cc(-c3ccc(Cl)c(Cl)c3)nc2s1 [Compound 11, 6-(3,4-Dichlorophenyl)imidazo[2,1-b]-1,3,4-thiadiazole-2-sulfonamide]
SCG neurons
  IC50: 3000 nM
CA II
  IC50: 1800 nM

## NS(=O)(=O)c1nn2cc(-c3ccc(Cl)c(Cl)c3Cl)nc2s1 [Compound 12, 6-(2,3,4-trichlorophenyl)imidazo[2,1-b]-1,3,4-thiadiazole-2-sulfonamide]
SCG neurons
  IC50: 5000 nM
CA II
  IC50: 1590 nM

## NS(=O)(=O)c1nn2cc(-c3cccc(Br)c3)nc2s1 [Compound 13, 6-(3-bromophenyl)imidazo[2,1-b]-1,3,4-thiadiazole-2-sulfonamide]
SCG neurons
  IC50: 7000 nM
CA II
  IC50: 4050 nM

## NS(=O)(=O)c1nn2cc(-c3ccc(Br)cc3)nc2s1 [Compound 14, 6-(4-Bromophenyl)-imidazo[2,1-b]-1,3,4-thiadiazole-2-sulfonamide]
SCG neurons
  IC50: 5000 nM
CA II
  IC50: 198 nM

## COc1ccccc1-c1cn2nc(S(N)(=O)=O)sc2n1 [Compound 15, 6-(2-Methoxyphenyl)imidazo[2,1-b]-1,3,4-thiadiazole-2-sulfonamide]
SCG neurons
  IC50: 10000 nM
CA II
  IC50: 152 nM

## COc1cccc(-c2cn3nc(S(N)(=O)=O)sc3n2)c1 [Compound 16, 6-(3-Methoxyphenyl)imidazo[2,1-b]-1,3,4-thiadiazole-2-sulfonamide]
SCG neurons
  IC50: 5000 nM
CA II
  IC50: 150 nM

## COc1ccc(-c2cn3nc(S(N)(=O)=O)sc3n2)cc1 [Compound 17, 6-(4-Methoxyphenyl)imidazo[2,1-b]-1,3,4-thiadiazole-2-sulfonamide]
SCG neurons
  IC50: 3000 nM
CA II
  IC50: 179 nM

## COc1ccc(OC)c(-c2cn3nc(S(N)(=O)=O)sc3n2)c1 [Compound 18, 6-(2,5-Dimethoxyphenyl)imidazo[2,1-b]-1,3,4-thiadiazole-2-sulfonamide]
SCG neurons
  IC50: 20000 nM
CA II
  IC50: 337 nM

## COc1ccc(-c2cn3nc(S(N)(=O)=O)sc3n2)c(OC)c1 [Compound 19, 6-(2,4-Dimethoxyphenyl)imidazo[2,1-b]-1,3,4-thiadiazole-2-sulfonamide]
SCG neurons
  IC50: 15000 nM
CA II
  IC50: 373 nM

## NS(=O)(=O)c1nn2cc(-c3ccc4c(c3)OCO4)nc2s1 [Compound 20, 6-(1,3-Benzodioxol-5-yl)imidazo[2,1-b]-1,3,4-thiadiazole-2-sulfonamide]
SCG neurons
  IC50: 15000 nM
CA II
  IC50: 404 nM

## NS(=O)(=O)c1nn2cc(-c3ccc(O)c(O)c3)nc2s1 [Compound 22]
SCG neurons
  IC50: 25000 nM
CA II
  IC50: 153 nM

## NS(=O)(=O)c1nn2cc(-c3cccc(OC(F)(F)F)c3)nc2s1 [Compound 24, 6-(3-trifloromethoxyphenyl)imidazo[2,1-b]-1,3,4-thiadiazole-2-sulfonamide]
SCG neurons
  IC50: 7000 nM
CA II
  IC50: 613 nM

## NS(=O)(=O)c1nn2cc(-c3ccc(OC(F)(F)F)cc3)nc2s1 [Compound 25, 6-(4-trifloromethoxyphenyl)imidazo[2,1-b]-1,3,4-thiadiazole-2-sulfonamide]
SCG neurons
  IC50: 5000 nM
CA II
  IC50: 302 nM

## NS(=O)(=O)c1nn2cc(-c3cccc([N+](=O)[O-])c3)nc2s1 [Compound 37, 6-(3-Nitrophenyl)imidazo[2,1-b]-1,3,4-thiadiazole-2-sulfonamide]
SCG neurons
  IC50: 10000 nM
CA II
  IC50: 199 nM

## NS(=O)(=O)c1nn2cc(-c3ccc(Cl)c([N+](=O)[O-])c3)nc2s1 [Compound 38, 6-(3-nitro-4-chlorophenyl)imidazo[2,1-b]-1,3,4-thiadiazole-2-sulfonamide]
SCG neurons
  IC50: 3000 nM
CA II
  IC50: 577 nM

## NS(=O)(=O)c1nn2cc(-c3ccc(C(=O)O)cc3)nc2s1 [Compound 39]
CA II
  IC50: 154 nM

## N#Cc1cccc(-c2cn3nc(S(N)(=O)=O)sc3n2)c1 [Compound 41, 6-(3-cyanophenyl)imidazo[2,1-b]-1,3,4-thiadiazole-2-sulfonamide]
SCG neurons
  IC50: 3000 nM
CA II
  IC50: 346 nM

## N#Cc1ccc(-c2cn3nc(S(N)(=O)=O)sc3n2)cc1 [Compound 42, 6-(4-cyanophenyl)imidazo[2,1-b]-1,3,4-thiadiazole-2-sulfonamide]
SCG neurons
  IC50: 3000 nM
CA II
  IC50: 272 nM

## CS(=O)(=O)c1ccc(-c2cn3nc(S(N)(=O)=O)sc3n2)cc1 [Compound 43, 6-(4-(methylsulfonyl)phenyl)imidazo[2,1-b]-1,3,4-thiadiazole-2-sulfonamide]
CA II
  IC50: 886 nM

## CCN(CC)S(=O)(=O)c1ccc(-c2cn3nc(S(N)(=O)=O)sc3n2)cc1 [Compound 45]
CA II
  IC50: 166 nM

## NS(=O)(=O)c1nn2c(Br)c(C(F)(F)F)nc2s1 [Compound 134, 5-Bromo-6-trifluoromethylimidazo[2,1-b]-1,3,4-thiadiazole-2-sulfonamide]
SCG neurons
  IC50: 1000 nM

## NS(=O)(=O)c1nn2c(Sc3ccccc3)c(-c3ccc4ccccc4c3)nc2s1 [Compound 135, 5-Thiophenyl-6-(2-naphthyl)imidazo[2,1-b]-1,3,4-thiadiazole-2-sulfonamide]
SCG neurons
  IC50: 7000 nM

## Nc1nnc(Sc2c(-c3ccc4ccccc4c3)nc3sc(S(N)(=O)=O)nn23)s1 [Compound 136]
SCG neurons
  IC50: 5000 nM

## CNS(=O)(=O)c1nn2cc(-c3c(F)c(F)c(F)c(F)c3F)nc2s1 [Compound 138, 6-(2,3,4,5,6-pentafluorophenyl)imidazo[2,1-b]-1,3,4-thiadiazole-2-N-methylsulfonamide]
SCG neurons
  IC50: 2000 nM

## CN(C)S(=O)(=O)c1nn2cc(-c3c(F)c(F)c(F)c(F)c3F)nc2s1 [Compound 140, 6-(2,3,4,5,6-pentafluorophenyl)imidazo[2,1-b]-1,3,4-thiadiazole-2-N,N-dimethylsulfonamide]
SCG neurons
  IC50: 5000 nM

## CCN(CC)S(=O)(=O)c1nn2cc(-c3cccc(OC)c3)nc2s1 [Compound 141]
SCG neurons
  IC50: > 30000 nM

## CN(C)S(=O)(=O)c1nn2cc(-c3ccc(Br)cc3)nc2s1 [Compound 143, 6-(4-Bromophenyl)imidazo[2,1-b]-1,3,4-thiadiazole-2-N,N-dimethylsulfonamide]
SCG neurons
  IC50: 10000 nM

## CN(C)S(=O)(=O)c1nn2c(Br)c(-c3ccc(Br)cc3)nc2s1 [Compound 144, hydrobromide]
SCG neurons
  IC50: 15000 nM

## CN(C)S(=O)(=O)c1nn2cc(-c3cccc(O)c3)nc2s1 [Compound 145]
SCG neurons
  IC50: 20000 nM

## CN(C)S(=O)(=O)c1nn2cc(-c3cccc(OC(=O)c4ccccc4)c3)nc2s1 [Compound 146, 6-(3-Benzoyloxyphenyl)imidazo[2,1-b]-1,3,4-thiadiazole-2-N,N-dimethylsulfonamide]
SCG neurons
  IC50: 20000 nM

## CN(C)S(=O)(=O)c1nn2cc(-c3ccc4ccccc4c3)nc2s1 [Compound 147, 6-(2-Naphthyl)imidazo[2,1-b]-1,3,4-thiadiazole-2-N,N-dimethylsulfonamide]
SCG neurons
  IC50: 17000 nM

## [N-]=[N+]=Nc1c(F)c(F)c(-c2cn3nc(S(N)(=O)=O)sc3n2)c(F)c1F [Compound 151, 6-(4-Azido-2,3,5,6-tetraflourophenyl)imidazo[2,1-b]-1,3,4-thiadiazole-2-sulfonamide]
SCG neurons
  IC50: 2000 nM

## CN(C)S(=O)(=O)c1nn2cc(-c3c(F)c(F)c(N=[N+]=[N-])c(F)c3F)nc2s1 [Compound 152, 6-(4-azido-2,3,5,6-pentafluorophenyl)imidazo[2,1-b]-1,3,4-thiadiazole-2-N,N-dimethylsulfonamide]
SCG neurons
  IC50: 2000 nM

## NS(=O)(=O)c1nn2cc(-c3ccc([N+](=O)[O-])cc3)nc2s1 [Compound 153, 6-(4-Nitrophenyl)imidazo[2,1-b]-1,3,4-thiadiazole-2-sulfonamide]
SCG neurons
  IC50: 5000 nM

## CCN[C@H]1C[C@H](C)S(=O)(=O)c2sc(S(N)(=O)=O)cc21 [Dorzolamide, reference compound]
SCG neurons
  inhibition of Taxol™ induced killing of SCGs: failed to significantly inhibit

## CC(=O)Nc1ccc(S(=O)(=O)Nc2nnc(S(N)(=O)=O)s2)cc1 [N-acetylaminobenzolamide, reference compound]
SCG neurons
  inhibition of Taxol™ induced killing of SCGs: failed to significantly inhibit

## CC(=O)Nc1nnc(S(N)(=O)=O)s1 [acetazolamide, reference compound]
SCG neurons
  inhibition of Taxol™ induced killing of SCGs: failed to significantly inhibit

## Nc1ccc(S(=O)(=O)Nc2nnc(S(N)(=O)=O)s2)cc1 [aminobenzolamide, reference compound]
SCG neurons
  inhibition of Taxol™ induced killing of SCGs: failed to significantly inhibit

## CC(=O)/N=c1/sc(S(N)(=O)=O)nn1C [methazolamide, reference compound]
SCG neurons
  inhibition of Taxol™ induced killing of SCGs: failed to significantly inhibit
